Assays:
[1] = test system: control sera (pooled serum of ten healthy LUMC hospital workers; commercial negative donor pooled serum from the Dutch bloodbank); type: binding, human; set-up: Binding of Control serum LUMC to linear peptides / Binding of Control serum Blood-bank to linear peptides / Binding of Control serum LUMC to looped peptides / Binding of Control Serum Blood-Bank to Looped peptides / Binding of Control serum LUMC to linear peptides of the protein M of SARS-CoV Urbani / Binding of Control serum Blood-bank to linear peptides of the protein M of SARS-CoV Urbani / Binding of Control serum LUMC to looped peptides of the protein M of SARS-CoV Urbani / Binding of Control Serum Blood-Bank to Looped peptides of the protein M of SARS-CoV Urbani: unit not given here
[2] = test system: rabbit serum obtained by immunizing a rabbit with the SARS-CoV strain Frankfurt 1; type: binding; set-up: Binding of a rabbit serum to linear peptides / Binding of a rabbit serum to looped peptides / Rabbit serum linear peptides / Rabbit serum looped peptides / Binding of a rabbit serum to linear peptides of protein N of SARS-CoV Urbani (Rabbit serum linear peptides) / Binding of a rabbit serum to looped/cyclic peptides of protein N of SARS-CoV Urbani (Rabbit serum looped peptides): unit not given here

Sequence | Rabbit serum linear peptides [2] | Rabbit serum looped peptides [2] | Binding of Control Serum Blood-Bank to Looped peptides [1] | Binding of Control serum Blood-bank to linear peptides [1] | Binding of Control serum LUMC to linear peptides [1] | Binding of Control serum LUMC to looped peptides [1] | Binding of a rabbit serum to linear peptides [2] | Binding of a rabbit serum to looped peptides [2] | further results
MAGHPLGRCDIKDLP | 0.4 | 0.3 |  |  |  |  |  |  | Binding of Control Serum Blood-Bank to Looped peptides of the protein M of SARS-CoV Urbani [1]: 0.5; Binding of Control serum Blood-bank to linear peptides of the protein M of SARS-CoV Urbani [1]: 0.7; Binding of Control serum LUMC to linear peptides of the protein M of SARS-CoV Urbani [1]: 0.5; Binding of Control serum LUMC to looped peptides of the protein M of SARS-CoV Urbani [1]: 0.5
LRIGTQVLKTMSLYM |  |  | 0.7 | 0.6 | 0.4 | 0.7 | 0.4 | 0.4 | 
IISSIVRQLFKPLTK | 0.6 | 0.4 |  |  |  |  |  |  | Binding of Control Serum Blood-Bank to Looped peptides of the protein X3 of SARS-CoV Urbani [1]: 0.6; Binding of Control serum Blood-bank to linear peptides of the protein X3 of SARS-CoV Urbani [1]: 0.8; Binding of Control serum LUMC to linear peptides of the protein X3 of SARS-CoV Urbani [1]: 0.8; Binding of Control serum LUMC to looped peptides of the protein X3 of SARS-CoV Urbani [1]: 0.6
RMAGHPLGRCDIKDL | 0.1 | 0.6 |  |  |  |  |  |  | Binding of Control Serum Blood-Bank to Looped peptides of the protein M of SARS-CoV Urbani [1]: 0.9; Binding of Control serum Blood-bank to linear peptides of the protein M of SARS-CoV Urbani [1]: 0.7; Binding of Control serum LUMC to linear peptides of the protein M of SARS-CoV Urbani [1]: 0.7; Binding of Control serum LUMC to looped peptides of the protein M of SARS-CoV Urbani [1]: 0.8
EILIIIMRTFRIAIW | 0.5 | 0.3 |  |  |  |  |  |  | Binding of Control Serum Blood-Bank to Looped peptides of the protein X3 of SARS-CoV Urbani [1]: 0.6; Binding of Control serum Blood-bank to linear peptides of the protein X3 of SARS-CoV Urbani [1]: 0.8; Binding of Control serum LUMC to linear peptides of the protein X3 of SARS-CoV Urbani [1]: 0.5; Binding of Control serum LUMC to looped peptides of the protein X3 of SARS-CoV Urbani [1]: 0.6
WVTGGIAIAMACIVG | 0.4 | 0.2 |  |  |  |  |  |  | Binding of Control Serum Blood-Bank to Looped peptides of the protein M of SARS-CoV Urbani [1]: 0.8; Binding of Control serum Blood-bank to linear peptides of the protein M of SARS-CoV Urbani [1]: 0.8; Binding of Control serum LUMC to linear peptides of the protein M of SARS-CoV Urbani [1]: 0.4; Binding of Control serum LUMC to looped peptides of the protein M of SARS-CoV Urbani [1]: 0.9
SGVKDYVVVHGYFTE |  |  | 0.2 | 0.5 | 0.6 | 0.5 | 0.1 | 0.7 | 
NWVTGGIAIAMACIV | 0.2 | 0.3 |  |  |  |  |  |  | Binding of Control Serum Blood-Bank to Looped peptides of the protein M of SARS-CoV Urbani [1]: 0.6; Binding of Control serum Blood-bank to linear peptides of the protein M of SARS-CoV Urbani [1]: 0.7; Binding of Control serum LUMC to linear peptides of the protein M of SARS-CoV Urbani [1]: 0.8; Binding of Control serum LUMC to looped peptides of the protein M of SARS-CoV Urbani [1]: 0.9
FFIFNKLVKDPPNVQ |  |  | 0.5 | 0.6 | 0.7 | 0.6 | 0.1 | 0.5 | 
QLFKPLTKKNYSELD | 0.3 | 0.3 |  |  |  |  |  |  | Binding of Control Serum Blood-Bank to Looped peptides of the protein X3 of SARS-CoV Urbani [1]: 0.8; Binding of Control serum Blood-bank to linear peptides of the protein X3 of SARS-CoV Urbani [1]: 0.8; Binding of Control serum LUMC to linear peptides of the protein X3 of SARS-CoV Urbani [1]: 0.8; Binding of Control serum LUMC to looped peptides of the protein X3 of SARS-CoV Urbani [1]: 0.8
DANYFVCWHTHNYDY |  |  | 0.5 | 0.8 | 0.8 | 1.0 | 0.1 | 0.5 | 
GNYKLNTDHAGSNDN | 0.0 | 0.2 |  |  |  |  |  |  | Binding of Control Serum Blood-Bank to Looped peptides of the protein M of SARS-CoV Urbani [1]: 0.6; Binding of Control serum Blood-bank to linear peptides of the protein M of SARS-CoV Urbani [1]: 0.6; Binding of Control serum LUMC to linear peptides of the protein M of SARS-CoV Urbani [1]: 0.7; Binding of Control serum LUMC to looped peptides of the protein M of SARS-CoV Urbani [1]: 0.7
FIFNKLVKDPPNVQI |  |  | 0.8 | 0.8 | 0.8 | 0.7 | 0.1 | 0.7 | 
TMVQTCTPNVTINCQ | 0.5 | 0.4 | 0.9 | 0.7 | 0.7 | 0.7 |  |  | 
TTVLLKEPCPSGTYE | 0.4 | 0.5 | 0.9 | 0.9 | 0.9 | 1.0 |  |  | 
HSGVKDYVVVHGYFT |  |  | 2.2 | 0.7 | 0.8 | 2.3 | 0.1 | 0.6 | 
QNSKKTTKLVVILRI |  |  | 0.7 | 0.5 | 0.8 | 0.7 |  |  | Recognition of the peptide by the rabbit serum [2]: recognized
IGNYKLNTDHAGSND | 0.5 | 0.0 |  |  |  |  |  |  | Binding of Control Serum Blood-Bank to Looped peptides of the protein M of SARS-CoV Urbani [1]: 0.7; Binding of Control serum Blood-bank to linear peptides of the protein M of SARS-CoV Urbani [1]: 0.5; Binding of Control serum LUMC to linear peptides of the protein M of SARS-CoV Urbani [1]: 0.3; Binding of Control serum LUMC to looped peptides of the protein M of SARS-CoV Urbani [1]: 0.8
IGGYSEDRHSGVKDY |  |  | 0.7 | 0.4 | 0.5 | 0.6 | 0.1 | 0.6 | 
VKDPPNVQIHTIDGS |  |  | 0.5 | 0.4 | 0.4 | 0.6 | 0.1 | 0.5 | 
SKKTTKLVVILRIGT |  |  | 0.7 | 0.6 | 0.8 | 0.7 |  |  | Recognition of the peptide by the rabbit serum [2]: recognized
GHQTAAFRDVLVVLN | 0.1 | 0.5 | 0.6 | 0.5 | 0.8 | 0.6 |  |  | 
HNYDYCIPYNSVTDT |  |  | 0.7 | 0.3 | 0.4 | 0.6 | 0.1 | 0.5 | 
VRGTTVLLKEPCPSG | 0.4 | 0.4 | 0.8 | 0.8 | 1.0 | 0.9 |  |  | 
DPIYDEPTTTTSVPL |  |  | 0.8 | 0.5 | 0.5 | 0.7 | 0.1 | 0.5 | 
PKLKEDYQIGGYSED |  |  | 0.5 | 0.4 | 0.4 | 0.7 | 0.1 | 0.6 | 
AMDPIYDEPTTTTSV |  |  | 0.7 | 0.8 | 0.6 | 0.7 | 0.1 | 0.4 | 
DGISTPKLKEDYQIG |  |  | 0.3 | 0.5 | 0.6 | 0.3 | 0.1 | 0.4 | 
PLGRCDIKDLPKEIT | 0.3 | 0.4 |  |  |  |  |  |  | Binding of Control Serum Blood-Bank to Looped peptides of the protein M of SARS-CoV Urbani [1]: 0.9; Binding of Control serum Blood-bank to linear peptides of the protein M of SARS-CoV Urbani [1]: 0.6; Binding of Control serum LUMC to linear peptides of the protein M of SARS-CoV Urbani [1]: 0.4; Binding of Control serum LUMC to looped peptides of the protein M of SARS-CoV Urbani [1]: 0.8
GSITAQPVKIDNASP |  |  | 0.6 | 0.6 | 0.6 | 0.5 | 0.2 | 0.4 | 

From patent US20070128217A1 (priority 2003, published 2007)
